# Reference: PubChem BioAssay AID2060507 (Molecular Pharmacology Branch, DTP, NCI, 2025)
# “And” between values parts separate entries of the source, which are not always exact repeats. Identical values can stand only once.
# System: 519858-162-T-J1-PDC complex spheroid viability
# Test: Anticancer human tumor 519858-162-T-J1-PDC patient-derived colon adenocarcinoma cell line growth inhibition [GQUAD]
# Conditions: for viability, T/C: stronger effect = lower value
# From the text: DNA G-quadruplex Stabilizer Agents in Combinations in Complex Spheroids
# A high-throughput screen of multi-cell type tumor spheroids was designed to identify active combinations of DNA G-quadruplex stabilizer agents and targeted small molecules. Complex spheroids include a stromal component modeled by human endothelial cells (HUVEC) and fibroblasts modeled by human mesenchymal stem cells (MSCs). The concentration ranges selected for each drug and investigational agent were based upon clinically achievable concentrations if the clinical Cmax of the agent was known.
# Compounds. The drugs and investigational agents: pidnarulex (CX-5461; NSC782164), APTO-253 (NSC789042), BRACO-19 (NSC847499), peposertib (NSC802822), ceralasertib (NSC780249), elimusertib (NSC800525), camonsertib (NSC841442), AZD-1390 (NSC803789), olaparib (NSC753686), talazoparib (NSC767125), ART-558 (NSC835418), sotorasib (NSC818433), MRTX-1133 (NSC836407), SN-38 (NSC673596), topotecan (NSC609699), etoposide (NSC141540), doxorubicin (NSC123127), gemcitabine (NSC613327), 5-fluorouracil (NSC19893), paclitaxel (NSC125973), vemurafenib (NSC761431), panobinostat (NSC761190), R-306465 (JNJ-16241199; NSC773264), adavosertib (NSC754352), TP-3654 (NSC805149), carboplatin (NSC241240), KSQ-4279 (NSC840948), and staurosporine (NSC755774) were obtained from the National Cancer Institute (NCI) Developmental Therapeutics Program Chemical Repository (34). The FDA-approved anticancer drug set is available from the NCI Developmental Therapeutics Program. […] The stock solutions were prepared in dimethyl sulfoxide (DMSO, Sigma-Aldrich, St. Louis, MO, cat. D2650) at 800-fold the tested concentration and stored at -70 degrees C prior to their use. All drugs and investigational agents were tested over a range starting from a high concentration at or near the clinical Cmax and decreasing in half-log increments. If the clinical Cmax for an agent had not been determined, the highest concentration tested was 10 microM.
# 2.3 Cell Culture. All cells were maintained in an incubator at 37 degrees C and 5% CO2 with 95% humidity. The PDC lines were cultured according to standard operating procedures established by the NCI PDMR. All PDCs were thawed and cultured in Matrigel-coated flasks prepared with a working solution of 1X Ham's F-12 nutrient mix, without supplementation (Invitrogen, cat. 11765054), 100 U/mL penicillin-streptomycin (Invitrogen, cat. 15140122), and 2.5% Matrigel (Corning Inc., cat. 354248) for the first three passages. The 857933-349-R-J2-PDC line was cultured in 6C/Colon 1B media, which includes advanced DMEM/F-12 (Thermo Fisher Scientific, cat. 12634028), 10 mM HEPES (Thermo Fisher Scientific, cat. 15630080), 1X GlutaMAX supplement (Thermo Fisher Scientific, cat. 35050061), 0.1 mg/mL primocin (InvivoGen, cat. ant-pm-2), 10% defined fetal bovine serum, heat inactivated (HyClone Laboratories Inc., cat. SH30070.03HI), 50% L-WRN conditioned media (ATCC, cat. CRL-3276), 1.25 mM N-Acetyl-L-cysteine (Sigma-Aldrich, cat. A9165), 10 mM nicotinamide (Sigma-Aldrich, cat. N0636), 1X B-27 supplement (Thermo Fisher Scientific, cat. 17504044), 1X N-2 supplement (Thermo Fisher Scientific, cat. 17502048), 10 microM Y-27632 dihydrochloride (Tocris Bioscience, cat. 1254), and 50 ng/mL human EGF recombinant protein (Thermo Fisher Scientific, cat. PHG0311). The 485176-168-R4-J1-PDC line was cultured in Panc media, which includes all 6C/Colon 1B media components plus 100 ng/mL human FGF-10 (Thermo Fisher Scientific, cat. 100-26), 500 nM SB-431542 (Selleckchem, cat. S1067), and gastrin (Tocris, cat. 3006).
# […]
# [1] = compound alone, run of 02/26/2024
# 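Also: spheroids exposed to compounds for 7 days.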
# 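For viability, T/C in this document: 100% = DMSO vehicle control viability.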
SMILES,IC50 [1],IC50 (curve of compound),"IC50 (compound alone, run of 02/20/2024)","viability, T/C (compound 0.0316 µM)","viability, T/C (compound 10 µM)","viability, T/C (compound 0.1 µM)","viability, T/C (compound 0.316 µM)","viability, T/C (compound 1 µM)","viability, T/C (compound 3.16 µM)","viability, T/C (compound 0.000999 µM)","viability, T/C (compound 0.00316 µM)","viability, T/C (compound 0.00999 µM)","viability, T/C (compound 0.0999 µM)"
CN(C)c1ccc(Nc2c3ccc(NC(=O)CCN4CCCC4)cc3nc3cc(NC(=O)CCN4CCCC4)ccc23)cc1,> 10 µM,–,–,85.1% [middle of 7 runs],67.7% [middle of 7 runs],–,–,–,–,–,–,–,–
COc1ccc([C@@H](O)c2cc(-c3ncnc4cc(N5CCOCC5)ccc34)c(F)cc2Cl)nn1,–,> 10 µM,–,103% and 120% and 90.1%,66.8% and 87.3% and 67.6%,49.1% and 113% and 99.8%,76% and 95.2% and 69%,94% and 100% and 121%,82.1% and 102% and 73.5%,–,–,–,–
Cc1[nH]c2ccc(F)cc2c1-c1nc2c3cccnc3c3ncccc3c2[nH]1,> 10 µM,–,8.82 µM and > 10 µM and 9.27 µM,–,–,87.9% [middle of 9 runs],92.2% [middle of 9 runs],–,–,–,–,–,–
Cc1[nH]c2ccccc2c1CCNCc1ccc(/C=C/C(=O)NO)cc1,–,> 0.316 µM,–,107%,–,–,50.6%,–,–,94.4%,108%,74.3%,75.5%
Cc1cccc(N(C)C(=O)C2C(O)CCN2c2nc(C)cc(C(F)(F)F)c2C#N)c1 (stereo unspecified),–,> 10 µM,–,110% and 112%,93.9% and 80.4%,88.1% and 75.7%,95.8% and 74.5%,111% and 116%,106% and 101%,–,–,–,–
Cc1cnc(CNC(=O)c2c(=O)c3ccc(N4CCCN(C)CC4)nc3n3c2sc2ccccc23)cn1,–,–,–,–,52.6% [middle of 10 runs],–,–,69.1% [middle of 10 runs],–,–,–,–,–
O=C(NO)c1cnc(N2CCN(S(=O)(=O)c3ccc4ccccc4c3)CC2)nc1,–,0.184 µM and 0.162 µM,–,97.8% and 112%,0.51% and 0.58%,76.5% and 58.8%,25.8% and 37.5%,9.47% and 14.6%,0.68% and 0.35%,–,–,–,–
O=C(c1cc(Cc2n[nH]c(=O)c3ccccc23)ccc1F)N1CCN(C(=O)C2CC2)CC1,–,> 10 µM,–,86.5% and 87.2%,103% and 69.9%,88.4% and 82.1%,115% and 95.4%,102% and 79.3%,86.3% and 93%,–,–,–,–
O=c1[nH]cc(F)c(=O)[nH]1,–,> 10 µM,–,91.9%,80.2%,115%,95.7%,107%,77%,–,–,–,–

# Now from value to compound, other results behind:
IC50 [1],IC50 (curve of compound),"IC50 (compound alone, run of 02/20/2024)",SMILES,"viability, T/C (compound 0.0316 µM)","viability, T/C (compound 10 µM)","viability, T/C (compound 0.1 µM)","viability, T/C (compound 0.316 µM)","viability, T/C (compound 1 µM)","viability, T/C (compound 3.16 µM)","viability, T/C (compound 0.000999 µM)","viability, T/C (compound 0.00316 µM)","viability, T/C (compound 0.00999 µM)","viability, T/C (compound 0.0999 µM)"
–,> 10 µM,–,COc1cc(C2c3cc4c(cc3C(OC3OC5COC(C)OC5C(O)C3O)C3COC(=O)C23)OCO4)cc(OC)c1O (stereo unspecified),165% and 107% and 86%,80.6% and 72.3% and 83.6%,90.6% and 89.7% and 81.6%,82.8% and 98% and 61.3%,123% and 112% and 70.1%,75% and 96.2% and 89.7%,–,–,–,–
–,> 10 µM and 5.66 µM,–,COc1cccc2c1C(=O)c1c(O)c3c(c(O)c1C2=O)CC(O)(C(=O)CO)CC3OC1CC(N)C(O)C(C)O1 (stereo unspecified),72.4% and 79.2% and 88.8%,82.8% and 70.4% and 46.2%,87.7% and 101% and 80.3%,96.6% and 91.6% and 71.9%,104% and 73.1% and 83.7%,68.2% and 95.1% and 53.9%,–,–,–,–
–,> 10 µM,–,COc1ncnc(C2CC2)c1-c1ncc2cnn(Cc3ccc(-c4nc(C(F)(F)F)cn4C(C)C)cc3)c2n1,104% and 85.1%,83.2% and 81.7%,111% and 83.2%,101% and 92.7%,119% and 75.2%,95.7% and 89.8%,–,–,–,–
–,> 0.316 µM,–,Cn1ncnc1[C@H]1c2n[nH]c(=O)c3cc(F)cc(c23)N[C@@H]1c1ccc(F)cc1,92.4% and 96.9%,–,–,116% and 59.9%,–,–,83.7% and 86.3%,82.9% and 98.9%,105% and 58.1%,119% and 84.3%
–,> 10 µM,–,Nc1ccn(C2OC(CO)C(O)C2(F)F)c(=O)n1 (stereo unspecified),78.1%,79%,91.4%,92.2%,94.6%,96.3%,–,–,–,–
